Test results reported in patent EP0411159B1, “METHOD FOR DETERMINING ENZYMATIC ACTIVITY” (IATRON LABORATORIES, INC., priority 1989, dated 1990).
In brackets after ≈: the same amount, converted by molar mass.

Columns and labels:
[1] = prior-art substrate; needs solubilizing auxiliary agent such as cyclodextrin or crown ether; cited from earlier work
[2] = stability (decomposition) of the substrate in aqueous solution; assay type: physicochemical
[3] = water solubility of the substrate (aqueous solution prepared)

Compound: CC(=O)N[C@H]1[C@H](Oc2ccc([N+](=O)[O-])cc2Cl)O[C@H](CO)[C@@H](O)[C@@H]1O [2-chloro-4-nitrophenyl-N-acetyl-β-D-glucosaminide]
- solubility in water (in words) [1]: difficult to dissolve in water

Compound: CC(=O)N[C@H]1[C@H](Oc2ccc([N+](=O)[O-])c([N+](=O)[O-])c2)O[C@H](CO)[C@@H](O)[C@@H]1O [3,4-DNG, 3,4-dinitrophenyl-N-acetyl-β-D-glucosaminide]
- degraded at 1 h ([2]; enzyme reaction conditions (pH 5, 37°C) for one hour, read-out: decomposition ratio): 1.5%
- stability of aqueous solution ([2]; under ice-cooling): stable
- degraded ([2]; water, aqueous solution left to stand at room temperature overnight): ~1%
- solubility [3]: 12 mM (≈ 4650 µg/mL)
